Laboratory results reported in patent US20220273664A1, “Mitochondrial Targeted Releasable Linker” (THE GOVERNING COUNCIL OF THE UNIVERSITY OF TORONTO, priority 2017, published 2022).

Tests used:
K562 cells [1] = test: toxicity at different time points in K562 cells; assay type: cell-based; conditions: K562 leukemia cells, up to 48 hours
Text: FIG. 7A is a graphical representation of the toxicity of compound 5 at different time points in K562 cells.
FIG. 7B is a graphical representation of the toxicity of compound 6 at different time points in K562 cells.
FIG. 10 is a graphical representation of the toxicity of luminespib (compound 7, as shown in FIG. 6C) at different time points in K562 cells.

K562 cells [2] = test: apoptosis measured via Annexin V staining; assay type: cell-based; conditions: 2.5 μM, 24 hours
Method: FIG. 8A is a chart illustrating apoptosis as measured via Annexin V staining of K562 cells treated for 24 hours with 2.5 μM of the compounds indicated. Cell populations were gated with annexin V+/Sytox red− cells as early apoptotic, and annexin V+/Sytox red+ cells as late apoptotic.
As controls, the parent compound luminespib (FIG. 8C, compound 7), and the empty disulfide vector (FIG. 6D) were also tested. The cells were treated with 2.5 μM of each compound.

## CCNC(=O)c1noc(-c2cc(C(C)C)c(O)cc2O)c1-c1ccc(CN2CCOCC2)cc1 [luminespib, 5-(2,4-Dihydroxy-5-isopropylphenyl)-N-ethyl-4-(4-(morpholinomethyl)phenyl)isoxazole-3-carboxamide]
K562 cells [1]
  cell toxicity over time: growth inhibition
K562 cells [2]
  apoptosis (early and late apoptotic cell populations): no increase
